Results: paper PMC6492180, “Cytome micronucleus assays with a metabolically competent human derived liver cell line (Huh6): A promising approach for routine testing of chemicals?” (Environmental and Molecular Mutagenesis, 2018)
Like-named read-outs stand apart in the source and are kept apart here. Marks after values point to notes of the source that are not given here.

Columns and labels:
[1] = tested on: Huh6 cells
Description: All experiments were performed in duplicate.
3.8–4.0 × 10^5 cells per well were seeded into 6‐well plates with 3 mL of RPMI (4% FBS) for 12 hr, then dilutions of stock solutions of the diagnostic mutagens were added for different time periods (4, 24, and 48 hr). In each experimental series solvent controls were included. Subsequently, the cells were washed twice with 3.0 mL medium. […] Finally, the cells were washed and trypsinised. Afterwards the cells were washed twice with 8.0 mL RPMI and collected on slides by cytocentrifugation (600 rpm, 5 min). The slides were air dried, fixed, and stained with DiffQuick according to the instructions of the manufacturer. For each experimental point, two cultures were tested per dose. From each culture ≥1,000 BN cells were evaluated under 400‐fold magnification (Nikon Photophot‐FXA, Tokyo, Japan). At least 2,000 binucleated cells were analyzed per dose for the determination of the different nuclear anomalies (MN, NBuds, and NBs).
The experiments were performed as described in the previous chapter. The cells were exposed only to one dose of the different mutagens and were cultivated after the seeding in 6‐well plates which contained 4% or 10% FBS in RPMI, respectively.
Data were evaluated by generalized linear model with Poisson counts. Chi‐square tests for overdispersion were applied. […] P values ≤0.05 were considered statistically significant.
^150-60 000 cells were seeded in 6 well plates with 3 ml RPMI (4% FBS), subsequently different solutions of the test compound (dissolved in medium) were added. After treatment for different time periods, the cells was washed and processed as described in the Material and Method section. […] From each culture 1000 binoculated cells were evaluated. BN-MN – number of micronucleated cells; MN - total number of micronuclei; CBPI – cytokinesis-block proliferation index
^1The experiments were conducted essentially as described in the footnote of Table S1A-I. *p≤0.05

[2] = tested on: HepG2; conditions: HepG2; ref Gajski et al., 2016; cited from earlier work
[3] = tested on: Human lymphocytes; conditions: cited from earlier work
[4] = ref IARC (2018); cited from earlier work
[5] = 10% FBS, 24 hr treatment, 0.5 µg/ml
[6] = 10% FBS, 24 hr treatment, 1 µg/ml

## c1ccc2c(c1)cc1ccc3cccc4ccc2c1c34 [B(a)P, Benzo(a)pyrene]
[1]; 4% FBS, 4hrs, 5 µM
  CBPI: 1.6 ± 0.1
[1]; 4% FBS, 4hrs, 10 µM
  CBPI: 1.6 ± 0.0
[1]; 4% FBS, 4hrs, 20 µM
  CBPI: 1.6 ± 0.1
[1]; 4% FBS, 24hrs, 5 µM
  CBPI: 1.4 ± 0.1
[1]; 4% FBS, 24hrs, 10 µM
  CBPI: 1.2 ± 0.1
[1]; 4% FBS, 48hrs, 0.4 µM
  CBPI: 1.9 ± 0.0
[1]; 4% FBS, 48hrs, 5 µM
  CBPI: 1.1 ± 0.1
[1]; 10% FBS, 24 hr treatment, 5 µM
  CBPI: 1.7 ± 0.0
[1]; 10% FBS, 24 hr treatment, 10 µM
  CBPI: 1.3 ± 0.1

## [NH2][Pt]([NH2])([Cl])[Cl] [CDDP, Cisplatin]
[2]
  Lowest effective concentration (LOEC) in micronucleus experiments: 0.1 (Gajski et al., 2016) μg/mL
[3]; Human lymphocytes, ref Fowler et al., 2014
  Lowest effective concentration (LOEC) in micronucleus experiments: 1.0 (Fowler et al., 2014) μg/mL
[1]; 4% FBS
  MN effects after 24 hr (or longer) compared with 4 hr treatment (in words): similar
[1]; 4% FBS, 1.0 μg/ml, 48h
  Toxicity in MN experiment (Figure 3): Toxic
[1]; 4% FBS, 4hrs, 0.05 µg/ml
  BN-MN (number of micronucleated cells): 16.0 ± 1.4 ‰
  Bridges: 0.0 ± 0.0 ‰
  Buds: 15.5 ± 2.1 ‰
  CBPI: 1.7 ± 0.1
  MN (total number of micronuclei): 16.0 ± 1.4 ‰
[1]; 4% FBS, 4hrs, 0.1 µg/ml
  BN-MN (number of micronucleated cells): 19.5 ± 0.7 ‰
  Bridges: 0.0 ± 0.0 ‰
  Buds: 16.5 ± 2.1 ‰
  CBPI: 1.6 ± 0.1
  MN (total number of micronuclei): 20.0 ± 1.4 ‰
[1]; 4% FBS, 4hrs, 0.5 µg/ml
  BN-MN (number of micronucleated cells): 19.5 ± 0.7 ‰
  Bridges: 0.0 ± 0.0 ‰
  Buds: 19.0 ± 1.4* ‰
  CBPI: 1.8 ± 0.1
  MN (total number of micronuclei): 21.5 ± 0.7 ‰
[1]; 4% FBS, 4hrs, 1 µg/ml
  BN-MN (number of micronucleated cells): 31.5 ± 5.0* ‰
  Bridges: 3.5 ± 0.7 ‰
  Buds: 34.0 ± 5.7* ‰
  CBPI: 1.5 ± 0.1
  MN (total number of micronuclei): 33.5 ± 5.0* ‰
[1]; 4% FBS, 24hrs, 0.1 µg/ml
  BN-MN (number of micronucleated cells): 13.5 ± 0.7 ‰
  Bridges: 0.0 ± 0.0 ‰
  Buds: 15.5 ± 0.7 ‰
  CBPI: 1.8 ± 0.1
  MN (total number of micronuclei): 14.0 ± 0.0 ‰
[1]; 4% FBS, 24hrs, 0.5 µg/ml
  BN-MN (number of micronucleated cells): 25.5 ± 0.7* ‰
  Bridges: 2.5 ± 0.7 ‰
  Buds: 30.5 ± 2.1* ‰
  CBPI: 2.0 ± 0.0
  MN (total number of micronuclei): 34.0 ± 1.4* ‰
[1]; 4% FBS, 24hrs, 1 µg/ml
  BN-MN (number of micronucleated cells): 29.5 ± 0.7* ‰
  Bridges: 5.0 ± 1.4 ‰
  Buds: 36.0 ± 2.8* ‰
  CBPI: 1.8 ± 0.0
  MN (total number of micronuclei): 35.0 ± 1.4* ‰
[1]; 4% FBS, 48hrs, 0.1 µg/ml
  BN-MN (number of micronucleated cells): 16.5 ± 0.7 ‰
  Bridges: 0.0 ± 0.0 ‰
  Buds: 21.5 ± 2.1 ‰
  CBPI: 1.6 ± 0.0
  MN (total number of micronuclei): 17.0 ± 1.4 ‰
[1]; 4% FBS, 48hrs, 1 µg/ml
  CBPI: 1.2 ± 0.1
[1]; 4% FBS, 48hrs, […]
  BN-MN (number of micronucleated cells): 20.0 ± 1.4 ‰
  MN (total number of micronuclei): 20.5 ± 0.7 ‰
[1]; [5]
  BN-MN (number of micronucleated cells): 38.0 ± 1.4*
  Bridges: 0.5 ± 0.7
  Buds: 32.0 ± 5.7*
  CBPI: 1.9 ± 0.0
  MN (total number of micronuclei): 40.5 ± 0.7*
[1]; [6]
  BN-MN (number of micronucleated cells): 46.5 ± 2.1*
  Buds: 49.0 ± 2.8*
  CBPI: 1.9 ± 0.1
  MN (total number of micronuclei): 50.0 ± 1.4*
[1]; 24 hr treatment
  MN frequencies with 10% serum compared with 4% serum (in words): pronounced increase
[1]; Huh6
  Lowest effective concentration (LOEC) in micronucleus experiments: 0.5 µg/mL
[4]
  IARC classification: Crosslinking agent; causes different types of DNA damage (gene mutations and CA); IARC: Group 2A

## COc1cc([C@@H]2c3cc4c(cc3[C@@H](O[C@@H]3O[C@@H]5CO[C@@H](C)O[C@H]5[C@H](O)[C@H]3O)[C@H]3COC(=O)[C@H]23)OCO4)cc(OC)c1O [Etoposide]
[1]; 4% FBS, 4hrs, 0.01 µg/ml
  CBPI: 1.8 ± 0.1
[1]; 4% FBS, 4hrs, 0.05 µg/ml
  CBPI: 1.8 ± 0.1
[1]; 4% FBS, 4hrs, 0.1 µg/ml
  CBPI: 1.8 ± 0.1
[1]; 4% FBS, 24hrs, 0.01 µg/ml
  CBPI: 1.9 ± 0.0
[1]; 4% FBS, 24hrs, 0.1 µg/ml
  CBPI: 1.8 ± 0.0
[1]; 4% FBS, 48hrs, 0.01 µg/ml
  CBPI: 1.7 ± 0.0
[1]; 4% FBS, 48hrs, 0.1 µg/ml
  CBPI: 1.1 ± 0.0
[1]; 10% FBS, 24 hr treatment, 0.1 µg/ml
  CBPI: 1.9 ± 0.0

## OO [H2O2, Hydrogen peroxide]
[3]
  Lowest effective concentration (LOEC) in micronucleus experiments: 100 (Andreoli et al., 1999) μM
[1]
  Change of MN rates after 48 hr treatment (in words): slight decrease
  Induction of MN after 4 hr treatment (in words): did not cause an effect
  Lowest effective concentration (LOEC) in micronucleus experiments: 10.0 µM
  MN effects after 24 hr (or longer) compared with 4 hr treatment (in words): more pronounced effects
  MN frequencies with 10% serum compared with 4% serum (in words): not increased
